Where two headings read alike, the source gives them in different places.
Tested on: Passive cutaneous anaphylaxis
Test: Passive cutaneous anaphylaxis (PCA) in rats
Type: in vivo
Conditions: dosed immediately prior to i.v. antigen/Evans blue challenge, blueing scored after 30 minutes; for ED50: Rattus norvegicus, 0.5 h
Method: Cutaneous anaphylaxis can be induced in rats by intradermal (ID) sensitization with antiserum followed three days later by systemic challenge with antigen. Evans blue dye injected with the antigen is used as a marker to assess the severity of the local response. Anti-allergic drugs inhibit this reaction. […] Brown: Pergamon Press:-male rats weighing 180-220 grams are used in groups of seven.
1. Wash 120 grams of Al(OH)3 gel in 140 ml of saline (use of a macerater facilitates mixing).
2. Centrifuge at 3,000 r.p.m. for about 10 minutes.
3. Resuspend the precipitate with 300 ml of albumen egg powder (1.3 mg/ml) in saline and allow to stand for 30 minutes.
4. Centrifuge at 3,000 r.p.m. for 10 minutes.
5. Weigh the wet precipitate and to each gram weight add 1 ml of saline. Store in refrigerator (Quantity sufficient for 60 rats for a 3 day sensitization program).
1 ml of the alum precipitated ovalbumen was injected subcutaneously into rats weighing 180-200 grams on days 0,2,4. The rats were bled on day 14 either by cardiac puncture of via the dorsal abdominal aorta. Equal quantities of serum from each animal were pooled and thoroughly mixed and 2 ml aliquots were stored at -20° C. in plastic tubes.
(A) SENSITIZATION: The rats were anaesthetized with Nembutal (40-60 mg/kg i.p.) and were then sensitized by four ID injections (0.1 ml each) on their shaved backs. The animals were then left for a period of three days to develop sensitization.
The injections were speeded up by using an automatic 1 ml self-filling glass syringe. The "challenged" rats were killed after 30 minutes, (usually pithed) and their skin on the dorsal surface was removed. The degree and area of blueing, proportional to the anaphylactic reaction was assessed on a four point scoring system.
1. Total scores for sites 1,2,3 and 4=X
2. Mean value of X for each group=X
3. X t=X for test group; X c=X for control group [formula]

[1] = intravenous, read-out: ED 50 (dose of drug giving 50% inhibition), intravenously

Compound: 7- and 8-chloro-imidazo-[1,2-a]-quinoxaline-2-carboxylic acid [Example 4]
- ED 50 (dose of drug giving 50% inhibition), intravenously (intravenous): 0.12 mg/kg
- ED 50 (dose of drug giving 50% inhibition), orally (oral): 0.71 mg/kg

Compound: O=C(O)c1cn2c(cnc3ccccc32)n1 [Example 1, Imidazo-[1,2-a]-quinoxaline-2-carboxylic acid]
- ED50 [1]: 0.073 mg/kg
- ED50 (oral, read-out: ED 50 (dose of drug giving 50% inhibition), orally): 0.73 mg/kg

Compound: O=C(O)c1cn2c(cnc3cc(Cl)c(Cl)cc32)n1 [Example 3, 7,8-dichloro-imidazo-[1,2-a]-quinoxaline-2-carboxylic acid]
- ED50 [1]: 0.2 mg/kg

Compound: CCOc1nc2ccccc2n2cc(C(=O)O)nc12 [Example 5, 4-ethoxy-imidazo-[1,2-a]-quinoxaline-2-carboxylic acid]
- ED50 [1]: 0.83 mg/kg

Compound: NC(=O)c1nc2ccccc2n2cc(C(=O)O)nc12 [Example 6, 4-carbamoyl-imidazo-[1,2-a]-quinoxaline-2-carboxylic acid]
- ED50 [1]: 3.13 mg/kg
